Values joined by “and” are separate entries in the source; they are usually repeats but may differ in a detail not shown here. Identical values can stand only once.
Key:
[1] = system: 293T cells; experiment: Fluorescent detection of Fluc-mRNA (cell transfection efficiency of LNP formulations); assay type: cell-based; details: for Relative light unit (RLU): LNP formulation containing 0.3 μg Fluc-mRNA, 96-well plate, 24 hours; for Multiples (YK-101): RLU of YK-101 / RLU of named substance; for Multiples (YK-107): RLU of YK-107 / RLU of named substance; for Multiples (YK-108): RLU of YK-108 / RLU of named substance; for Ratio relative to SM-102: RLU of named substance / RLU of SM-102; for fluorescence absorption value, times that of HHMA: RLU of named substance / RLU of HHMA; for fluorescence absorption value, times that of Lipofectamine 3000: RLU of named substance / RLU of Lipofectamine 3000; for Fluc-mRNA expression signal intensity, times that of compound 21: RLU of named substance / RLU of compound 21; for fluorescence absorption value, times that of compound 23: RLU of named substance / RLU of compound 23
Procedure: (§1) Cell recovery and passage: 293T cells were recovered, cultured in a culture dish, and passaged to the required number of cells.
(§2) Seeding plate: The cells in the culture dish were digested and counted. Cells were spread in a 96-well plate at 10,000 cells per well and in a 12-well plate at 150,000 cells per well. Cells were cultured overnight until the cells adhered to the wall.
Cell recovery and passage: the method was the same as in Example 3.
Seeding plate: the method was the same as in Example 3.
An LNP formulation containing 0.3 μg of Fluc-mRNA (the carrier components of the LNP formulation were cationic lipid, neutral lipid, structured lipid and polymer-conjugated lipid with a molar ratio of 49:10:39.5:1.5, wherein the cationic lipid was listed in Table 1) was added to the cell culture medium of a 96-well plate, and further incubated for 24 hours. The corresponding reagent was added according to the instructions of the Gaussia Luciferase Assay Kit, and the fluorescence expression intensity of each well was detected by an IVIS fluorescence detection system. This test verified the transfection efficiencies of LNP formulations in cells, see Tables 3-6 for specific test results.

[2] = system: BALB/C mice; experiment: In vivo imaging of Fluc-mRNA expression in mice delivered by LNP formulations; details: LNP containing 10 pg Fluc-mRNA, intramuscular, female BALB/C mice
Procedure: The LNP formulation containing […] Fluc-mRNA was injected intramuscularly into female BALB/C mice aged 4-6 weeks old and weighed 17-19 g, and the mice were intraperitoneally injected with fluorescent imaging substrate at specific time points after administration (6h, 24 h, 48h and 7d), where the mice were allowed to move freely for 5 minutes, and then the average radiation intensity (corresponding to fluorescence expression intensity) of the protein expression of the mRNA carried by the LNP in the mice was detected by the IVIS Spectrum small animal in vivo imaging device. The test results are shown in Tables 11 to 14 and FIGS. 12 to 14.

[3] = system: 293T cells; experiment: Cell survival rate determination (CCK-8); assay type: cell-based; details: for Cell survival rate (%): LNP formulation containing 1.5 μg Fluc-mRNA, 24 hours, CCK-8, absorbance at 450 nm; for cell survival rate lower than that of YK-101: cell survival rate of YK-101 minus that of named substance; for cell survival rate lower than that of YK-107: cell survival rate of YK-107 minus that of named substance; for cell survival rate lower than that of YK-108: cell survival rate of YK-108 minus that of named substance
Procedure: as §1, §2
An LNP formulation containing 1.5 μg of Fluc-mRNA (the cater component of the LNP formulation were cationic lipid, neutral lipid, structured lipid and polymer-conjugated lipid with a molar ratio of 49: 10: 39.5: 1.5, wherein the cationic lipid was listed in Table 1) and the formulation of Lipofectamine 3000 were added to the cell culture medium of a 96-well plate, and further cultivated for 24 hours. 10 μL of CCK-8 solution was then added to each well, and the culture plate was incubated in an incubator for 1 hour. The absorbance at 450 nm was measured by a microplate reader.

| SMILES | Relative light unit (RLU) [1] [RLU] | Multiples (YK-101) [1] | Multiples (YK-107) [1] | Multiples (YK-108) [1] | Ratio relative to SM-102 [1] | average radiation intensity, 6 h ([2]; 6 h) | average radiation intensity, 24 h ([2]; 24 h) | average radiation intensity, 48 h ([2]; 48 h) | average radiation intensity, 7 d ([2]; 7 d) | Cell survival rate (%) [3] [%] | fluorescence absorption value, times that of HHMA [1] [times] | fluorescence absorption value, times that of Lipofectamine 3000 [1] [times] | Fluc-mRNA expression signal intensity, times that of compound 21 [1] [times] | fluorescence absorption value, times that of compound 23 [1] [times] | cell survival rate lower than that of YK-101 [3] | cell survival rate lower than that of YK-107 [3] | cell survival rate lower than that of YK-108 [3] | cell transfection activity, times that of YK-112 [1] | cell transfection efficiency, times that of YK-118 [1] [times] | cell transfection efficiency, times that of YK-119 [1] [times] |
| --- | --- | --- | --- | --- | --- | --- | --- | --- | --- | --- | --- | --- | --- | --- | --- | --- | --- | --- | --- | --- |
| CCCCCCCCCCOC(=O)CCCN(CCO)CCCCCC(=O)OCCC(CCCCCC)CCCCCC [YK-101, 3-hexylnonyl-6-(4-(decyloxy)-4-oxobutyl)((2-hydroxyethyl)amino)hexanoate] | 20335193 | 1.00 | 1.10 | 1.21 | 13.25 | 1496240 | 1056210 | 185905 | 12165 | 90.12 | – | – | – | – | – | – | – | – | – | – |
| CCCCCCC(CCCCCC)CCOC(=O)CCCCCN(CCO)CCCCCC(=O)OCCCSSCCCCC [YK-110] | 271783 | 74.82 | 82.28 | 90.74 | 0.18 | – | – | – | – | 42.85 | 0.13 | 0.25 | 0.20 | 0.21 | 40% | 40% | 40% | – | – | – |
| CCCCCCC(CCCCCC)CCOC(=O)CCCCCN(CCO)CCCCCC(=O)OCCSCCCC [YK-112, 3-hexylnonyl-6-(6-(2-(butylthio)ethoxy)-6-oxohexyl)((2-hydroxyethyl)amino)hexanoate] | 2012 | – | – | – | 0.0013 | – | – | – | – | 9.82 | 0.0010 | 0.0019 | 0.0014 | 0.0016 | 80.30% and 80% | 80.63% and 80% | 80.04% and 80% | – | – | – |
| CCCCCCCCC(CCCCCCCC)COC(=O)CCCCCN(CCO)CCCCCC(=O)OCCSCCCC [YK-113, 2-octyldecyl 6-(6-(2-(butylthio)ethoxy)-6-oxohexyl)((2-hydroxyethyl)amino)hexanoate] | 151694 | 134.05 | – | 162.57 | 0.10 | – | – | – | – | 43.05 | 0.07 | 0.14 | 0.11 | 0.12 | 47.07% and 40% | 47.40% and 40% | 46.81% and 40% | up to 75 times | – | – |
| CCCCCCCCCCOC(=O)CCCN(CCCCCC(=O)OCCC(CCCCCC)CCCCCC)C[C@H](O)CO [YK-116, 3-hexylnonyl 6-(4-(decyloxy)-4-oxobutyl)(((S)-2,3-dihydroxypropyl)amino)hexanoate] | 1321284 | 15.39 | 16.92 | 18.66 | 0.86 | – | – | – | – | 67.96 | 0.65 | 1.23 | 0.95 | 1.02 | 22.16% | 22.49% | 21.90% | – | – | – |
| CCCCCCCCCCOC(=O)CCCN(CCCCCC(=O)OCCC(CCCCCC)CCCCCC)C[C@H](C)O [YK-117, 3-hexylnonyl 6-(4-(decyloxy)-4-oxobutyl)(((S)2-hydroxypropyl)amino)hexanoate] | 695716 | 29.23 | 32.14 | 35.45 | 0.45 | – | – | – | – | 57.93 | 0.34 | 0.65 | 0.50 | 0.54 | 32.19% | 32.52% | 31.93% | – | 33 | 80 |
| CCCCCCCCCCOC(=O)CCCN(CCCCCC(=O)OCCC(CCCCCC)CCCCCC)CCC(C)O (stereo not drawn) [YK-118, 3-hexylnonyl 6-(4-(decyloxy)-4-oxobutyl)((3-hydroxybutyl)amino)hexanoate] | 21310 | – | 1049.33 | 1157.23 | 0.0139 | – | – | – | – | 63.33 | 0.0104 | 0.0199 | 0.0153 | 0.0165 | 26.79% | 27.12% | 26.53% | – | – | – |
| CCCCCCCCCCOC(=O)CCCN(CCCCCC(=O)OCCC(CCCCCC)CCCCCC)CCC(C)(C)O [YK-119, 3-hexylnonyl 6-(4-(decyloxy)-4-oxobutyl)((3-hydroxy-3-methylbutyl)amino)hexanoate] | 8557 | – | – | – | 0.0056 | – | – | – | – | 80.27 | 0.0042 | 0.0080 | 0.0062 | 0.0066 | 9.85% | 10.18% | 9.59% | – | – | – |

Reference: patent US20260008746A1, “CATIONIC LIPID COMPOUND WITH HIGH EFFICIENCY, LOW TOXICITY AND STABLE EXPRESSION, AND COMPOSITION COMPRISNG SAME” (HANGZHOU TIANLONG PHARMACEUTICAL CO., LTD, priority 2023, published 2026)
